Measured values reported in PubChem BioAssay AID1963965 (Molecular Pharmacology Branch, DTP, NCI, 2024).

Tested on: 996289-038-R-J1-PDC spheroid viability
Assay: Anticancer human tumor 996289-038-R-J1-PDC patient-derived colon adenocarcinoma cell line growth inhibition [PI3K]
Details: spheroids with HUVEC and MSC; for viability, T/C: stronger effect = lower value
Summary of the method: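 Complex 3D spheroids (cancer cells + endothelial HUVEC + mesenchymal stem cells); drug pairs of targeted agent x inavolisib/alpelisib/duvelisib/copanlisib; half-log series from ~Cmax, max 10 microM if Cmax unknown; endpoint viability.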

[1] = curve of first compound, second compound 0.0316 µM
[2] = curve of first compound, second compound 0.1 µM
[3] = curve of first compound, second compound 0.316 µM
[4] = curve of first compound, second compound 1 µM
[5] = curve of first compound, second compound 3.16 µM
[6] = curve of first compound, second compound 10 µM
[7] = second compound 0.0316 µM, first compound 0.00316 µM
[8] = second compound 0.0316 µM, first compound 0.01 µM
[9] = second compound 0.0316 µM, first compound 0.0316 µM
[10] = second compound 0.0316 µM, first compound 0.1 µM
[11] = second compound 0.1 µM, first compound 0.00316 µM
[12] = second compound 0.1 µM, first compound 0.01 µM
[13] = second compound 0.1 µM, first compound 0.0316 µM
[14] = second compound 0.1 µM, first compound 0.1 µM
[15] = second compound 0.316 µM, first compound 0.00316 µM
[16] = second compound 0.316 µM, first compound 0.01 µM
[17] = second compound 0.316 µM, first compound 0.0316 µM
[18] = second compound 0.316 µM, first compound 0.1 µM
[19] = second compound 1 µM, first compound 0.00316 µM
[20] = second compound 1 µM, first compound 0.01 µM
[21] = second compound 1 µM, first compound 0.0316 µM
[22] = second compound 1 µM, first compound 0.1 µM
[23] = second compound 3.16 µM, first compound 0.00316 µM
[24] = second compound 3.16 µM, first compound 0.01 µM
[25] = second compound 3.16 µM, first compound 0.0316 µM
[26] = second compound 3.16 µM, first compound 0.1 µM
[27] = second compound 10 µM, first compound 0.00316 µM
[28] = second compound 10 µM, first compound 0.01 µM
[29] = second compound 10 µM, first compound 0.0316 µM
[30] = second compound 10 µM, first compound 0.1 µM
[31] = second compound 0.0316 µM, first compound 0.316 µM
[32] = second compound 0.0316 µM, first compound 1 µM
[33] = second compound 0.1 µM, first compound 0.316 µM
[34] = second compound 0.1 µM, first compound 1 µM
[35] = second compound 0.316 µM, first compound 0.316 µM
[36] = second compound 0.316 µM, first compound 1 µM
[37] = second compound 1 µM, first compound 0.316 µM
[38] = second compound 1 µM, first compound 1 µM
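Also: spheroids exposed to compounds for seven days before viability read.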
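For viability, T/C in this document: luminescence used as a proxy for viable cell amount; percent viability relative to DMSO vehicle control as 100%.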

`CC(C)n1nc(-c2ccc3oc(N)nc3c2)c2c(N)ncnc21` + CC(Nc1ncnc2nc[nH]c12)c1cc2cccc(Cl)c2c(=O)n1-c1ccccc1 was tested, and the IC50 [1] was 80.1 nM, the IC50 [2] was 62 nM and the IC50 [3] was 64.9 nM. For the same compound, the IC50 [4] was 58 nM, the IC50 [5] was 71.7 nM and the IC50 [6] was 62.9 nM. It also gave a viability, T/C (second compound 0.0316 µM, first compound 0.000316 µM) of 107%, a viability, T/C (second compound 0.0316 µM, first compound 0.001 µM) of 88.6% and a viability, T/C [7] of 97.6%. The viability, T/C [8] was 86.7%, the viability, T/C [9] was 82.7% and the viability, T/C [10] was 42.3%. It also gave a viability, T/C (second compound 0.1 µM, first compound 0.000316 µM) of 124%, a viability, T/C (second compound 0.1 µM, first compound 0.001 µM) of 96.5% and a viability, T/C [11] of 96.1%. It also gave a viability, T/C [12] of 95.8%, a viability, T/C [13] of 70.8% and a viability, T/C [14] of 34.5%. The viability, T/C (second compound 0.316 µM, first compound 0.000316 µM) was 105%, the viability, T/C (second compound 0.316 µM, first compound 0.001 µM) was 87.4% and the viability, T/C [15] was 84.6%. It also gave a viability, T/C [16] of 87.3%, a viability, T/C [17] of 73.9% and a viability, T/C [18] of 36.2%. The viability, T/C (second compound 1 µM, first compound 0.000316 µM) was 98.4%, the viability, T/C (second compound 1 µM, first compound 0.001 µM) was 97.9% and the viability, T/C [19] was 85.9%. The viability, T/C [20] was 84.6%, the viability, T/C [21] was 65.7% and the viability, T/C [22] was 35.9%. For the same compound, the viability, T/C (second compound 3.16 µM, first compound 0.000316 µM) was 87.5%, the viability, T/C (second compound 3.16 µM, first compound 0.001 µM) was 87.5% and the viability, T/C [23] was 86.2%. For the same compound, the viability, T/C [24] was 89.5%, the viability, T/C [25] was 76.8% and the viability, T/C [26] was 38.9%. It also gave a viability, T/C (second compound 10 µM, first compound 0.000316 µM) of 85%, a viability, T/C (second compound 10 µM, first compound 0.001 µM) of 82% and a viability, T/C [27] of 82.9%. The viability, T/C [28] was 79%, the viability, T/C [29] was 68.8% and the viability, T/C [30] was 37.2%.
Work on `CC1(C)CCC(Nc2ncc(C(F)(F)F)c(-c3c[nH]c4c(P(C)(C)=O)c(C#N)ccc34)n2)CN1` (stereo not drawn) + CC(Nc1ccc2c(c1)OCCn1cc(N3C(=O)OCC3C(F)F)nc1-2)C(N)=O yielded an IC50 (curve of first compound, second compound 0.00316 µM) of 6750 nM, an IC50 (curve of first compound, second compound 0.01 µM) of 6890 nM and an IC50 [1] of 6690 nM. It also gave an IC50 [2] of 5850 nM, an IC50 [3] of 4910 nM and an IC50 [4] of 4660 nM. For the same compound, the viability, T/C (second compound 0.00316 µM, first compound 0.0316 µM) was 111%, the viability, T/C (second compound 0.00316 µM, first compound 0.1 µM) was 90.6% and the viability, T/C (second compound 0.00316 µM, first compound 0.316 µM) was 81%. The viability, T/C (second compound 0.00316 µM, first compound 1 µM) was 87.3%, the viability, T/C (second compound 0.00316 µM, first compound 3.16 µM) was 97.1% and the viability, T/C (second compound 0.00316 µM, first compound 10 µM) was 27.4%. For the same compound, the viability, T/C (second compound 0.01 µM, first compound 0.0316 µM) was 110%, the viability, T/C (second compound 0.01 µM, first compound 0.1 µM) was 93% and the viability, T/C (second compound 0.01 µM, first compound 0.316 µM) was 81.7%. For the same compound, the viability, T/C (second compound 0.01 µM, first compound 1 µM) was 94.1%, the viability, T/C (second compound 0.01 µM, first compound 3.16 µM) was 89.7% and the viability, T/C (second compound 0.01 µM, first compound 10 µM) was 31.1%. The viability, T/C [9] was 99.3%, the viability, T/C [10] was 83.6% and the viability, T/C [31] was 85.5%. It also gave a viability, T/C [32] of 81.9%, a viability, T/C (second compound 0.0316 µM, first compound 3.16 µM) of 88.5% and a viability, T/C (second compound 0.0316 µM, first compound 10 µM) of 29.7%. For the same compound, the viability, T/C [13] was 89%, the viability, T/C [14] was 76.3% and the viability, T/C [33] was 81.2%. For the same compound, the viability, T/C [34] was 82.2%, the viability, T/C (second compound 0.1 µM, first compound 3.16 µM) was 81% and the viability, T/C (second compound 0.1 µM, first compound 10 µM) was 22.9%. For the same compound, the viability, T/C [17] was 73.9%, the viability, T/C [18] was 72% and the viability, T/C [35] was 76.6%. For the same compound, the viability, T/C [36] was 65.8%, the viability, T/C (second compound 0.316 µM, first compound 3.16 µM) was 69% and the viability, T/C (second compound 0.316 µM, first compound 10 µM) was 19.9%. For the same compound, the viability, T/C [21] was 58.8%, the viability, T/C [22] was 73.8% and the viability, T/C [37] was 63.7%. For the same compound, the viability, T/C [38] was 63.3%, the viability, T/C (second compound 1 µM, first compound 3.16 µM) was 66.8% and the viability, T/C (second compound 1 µM, first compound 10 µM) was 19.9%.
With `CCN1CCN(Cc2ccc(Nc3ncc(F)c(-c4cc(F)c5nc(C)n(C(C)C)c5c4)n3)nc2)CC1` the viability, T/C (compound 0.00316 µM) was 99.6% [middle of 4 runs], the viability, T/C (compound 0.01 µM) was 91.2% [middle of 4 runs] and the viability, T/C (compound 0.0316 µM) was 94% [middle of 4 runs]. For the same compound, the viability, T/C (compound 0.1 µM) was 85.2% [middle of 4 runs], the viability, T/C (compound 0.316 µM) was 85.7% [middle of 4 runs] and the viability, T/C (compound 1 µM) was 85.3% [middle of 4 runs]. For the same compound, the IC50 (curve of compound) was greater than 1000 nM.
`CCN1CCN(Cc2ccc(Nc3ncc(F)c(-c4cc(F)c5nc(C)n(C(C)C)c5c4)n3)nc2)CC1` + CC(Nc1ncnc2nc[nH]c12)c1cc2cccc(Cl)c2c(=O)n1-c1ccccc1 gave an IC50 [1] greater than 1000 nM, an IC50 [2] greater than 1000 nM and an IC50 [3] greater than 1000 nM. It also gave an IC50 [4] greater than 1000 nM, an IC50 [5] greater than 1000 nM and an IC50 [6] greater than 1000 nM. The viability, T/C [7] was 111%, the viability, T/C [8] was 94.2% and the viability, T/C [9] was 92.2%. It also gave a viability, T/C [10] of 87.1%, a viability, T/C [31] of 79% and a viability, T/C [32] of 74.1%. The viability, T/C [11] was 102%, the viability, T/C [12] was 96.4% and the viability, T/C [13] was 91.8%. The viability, T/C [14] was 86.7%, the viability, T/C [33] was 76.7% and the viability, T/C [34] was 80%. It also gave a viability, T/C [15] of 96.2%, a viability, T/C [16] of 93.7% and a viability, T/C [17] of 89.1%. For the same compound, the viability, T/C [18] was 80.3%, the viability, T/C [35] was 75% and the viability, T/C [36] was 80.4%. For the same compound, the viability, T/C [19] was 104%, the viability, T/C [20] was 88.5% and the viability, T/C [21] was 86%. It also gave a viability, T/C [22] of 79.8%, a viability, T/C [37] of 76.8% and a viability, T/C [38] of 70.7%. For the same compound, the viability, T/C [23] was 98.1%, the viability, T/C [24] was 105% and the viability, T/C [25] was 79.4%. For the same compound, the viability, T/C [26] was 86.6%, the viability, T/C (second compound 3.16 µM, first compound 0.316 µM) was 81% and the viability, T/C (second compound 3.16 µM, first compound 1 µM) was 68.8%. The viability, T/C [27] was 82%, the viability, T/C [28] was 76% and the viability, T/C [29] was 82.4%. The viability, T/C [30] was 74.3%, the viability, T/C (second compound 10 µM, first compound 0.316 µM) was 71% and the viability, T/C (second compound 10 µM, first compound 1 µM) was 58.6%.
